Assays:
Aurora A = target: T1, Aurora A (Homo sapiens, UniProt O14965); assay: Aurora-A microfluidic kinase assay; type: biochemical; conditions: biochemical; mean of two determinations or mean ±SD for n > 2
T1 sequence (O14965 1-403): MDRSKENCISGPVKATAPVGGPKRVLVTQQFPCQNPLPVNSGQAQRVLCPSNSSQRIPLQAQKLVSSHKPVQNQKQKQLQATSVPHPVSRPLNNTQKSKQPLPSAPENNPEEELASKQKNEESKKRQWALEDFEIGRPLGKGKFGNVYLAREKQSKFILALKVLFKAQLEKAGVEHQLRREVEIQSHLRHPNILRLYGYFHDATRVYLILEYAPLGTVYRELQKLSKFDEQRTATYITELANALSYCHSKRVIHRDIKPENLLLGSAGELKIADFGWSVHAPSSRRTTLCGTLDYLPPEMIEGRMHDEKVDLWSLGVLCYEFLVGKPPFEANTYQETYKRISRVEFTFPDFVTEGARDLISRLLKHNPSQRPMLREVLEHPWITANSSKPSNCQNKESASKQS
Text: (§1) As part of our medicinal chemistry programme to discover selective inhibitors of Aurora-A,[12] we introduced the 1-benzyl-1H-pyrazol-4-yl moiety at C7 of the imidazo[4,5-b]pyridine scaffold to provide 7a (Table 1). We previously reported 1,3-dimethyl-1H-pyrazol-4-yl as a preferred substituent at the C2 position of the imidazo[4,5-b]pyridine scaffold[11] and this moiety was therefore incorporated into the design of 7a and analogues presented in this study. […] This in vitro profile prompted us to investigate this C7-pyrazole substituted imidazo[4,5-b]pyridine subseries in more detail. Firstly, we attempted to increase biochemical potency against Aurora-A, and also to improve microsomal stability.
[17] Aurora-A and Aurora-B IC50 values were determined by using a microfluidic assay which monitors the separation of a phosphorylated product from its substrate, as described in Ref. [12].

NUAK1 = NUAK1 (Homo sapiens, UniProt O60285); assay: Kinase selectivity profiling; type: biochemical; conditions: 1 µM, assay duplicates
NUAK1, sequence (O60285 whole entry): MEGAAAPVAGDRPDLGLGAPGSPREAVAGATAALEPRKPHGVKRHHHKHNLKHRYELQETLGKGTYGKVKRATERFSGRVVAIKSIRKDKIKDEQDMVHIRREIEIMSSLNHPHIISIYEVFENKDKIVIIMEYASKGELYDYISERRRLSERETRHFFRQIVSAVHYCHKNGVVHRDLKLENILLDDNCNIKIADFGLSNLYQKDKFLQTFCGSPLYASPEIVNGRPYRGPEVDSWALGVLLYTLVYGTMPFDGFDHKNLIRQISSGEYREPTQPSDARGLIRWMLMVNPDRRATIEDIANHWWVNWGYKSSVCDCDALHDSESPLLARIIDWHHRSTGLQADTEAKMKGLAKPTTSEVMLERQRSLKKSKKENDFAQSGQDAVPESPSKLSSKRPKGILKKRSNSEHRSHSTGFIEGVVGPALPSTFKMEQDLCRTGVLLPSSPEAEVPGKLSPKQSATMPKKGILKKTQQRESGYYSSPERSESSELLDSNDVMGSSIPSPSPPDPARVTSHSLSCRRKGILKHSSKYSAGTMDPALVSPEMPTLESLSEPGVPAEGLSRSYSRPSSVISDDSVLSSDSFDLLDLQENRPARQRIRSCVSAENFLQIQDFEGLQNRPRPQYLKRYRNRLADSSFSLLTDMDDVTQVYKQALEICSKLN
Protocol: (§2) [20] Kinase selectivity profiling for compounds 7a, 7d, 14d and 14g was carried out at the International Centre for Protein Kinase Profiling, Division of Signal Transduction Therapy, University of Dundee.
(§3) Table S1: Kinase selectivity profiling of compounds 7a and 7d in a 102-kinase panel screened at a concentration of 1 µM.
(§4) Table S2: Kinase selectivity profiling of compounds 14d and 14g in a 105-kinase panel screened at a concentration of 1 µM.

PAK4 = PAK4 (Homo sapiens, UniProt O96013); assay: Kinase selectivity profiling; type: biochemical; conditions: 1 µM, assay duplicates
PAK4, sequence (O96013 whole entry): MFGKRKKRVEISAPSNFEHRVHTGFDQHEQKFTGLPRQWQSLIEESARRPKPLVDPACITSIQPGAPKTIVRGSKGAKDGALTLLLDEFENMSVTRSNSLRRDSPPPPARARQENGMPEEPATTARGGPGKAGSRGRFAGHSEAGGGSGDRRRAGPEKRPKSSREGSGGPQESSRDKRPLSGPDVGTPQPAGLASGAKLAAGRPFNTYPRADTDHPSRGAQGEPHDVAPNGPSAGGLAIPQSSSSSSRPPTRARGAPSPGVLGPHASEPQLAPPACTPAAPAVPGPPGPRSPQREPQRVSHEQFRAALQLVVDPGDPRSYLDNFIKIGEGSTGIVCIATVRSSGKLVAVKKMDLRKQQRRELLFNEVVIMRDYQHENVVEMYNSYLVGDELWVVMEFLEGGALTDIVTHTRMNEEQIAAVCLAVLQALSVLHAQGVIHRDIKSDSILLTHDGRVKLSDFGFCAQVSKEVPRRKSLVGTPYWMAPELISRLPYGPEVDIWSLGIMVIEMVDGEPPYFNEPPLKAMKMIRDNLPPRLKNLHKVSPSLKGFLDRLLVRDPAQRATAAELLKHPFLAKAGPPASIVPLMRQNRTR
Protocol: as §2, §3, §4

PKD1 = PKD1 (Homo sapiens, UniProt Q15139); assay: Kinase selectivity profiling; type: biochemical; conditions: 1 µM, assay duplicates
Protocol: as §2, §3, §4

EF2K = EF2K (Homo sapiens, UniProt O00418); assay: Kinase selectivity profiling; type: biochemical; conditions: 1 µM, assay duplicates
Protocol: as §2, §3, §4

JAK2 = JAK2 (Homo sapiens, UniProt O60674); assay: Kinase selectivity profiling; type: biochemical; conditions: for JAK2 inhibition: 1 μM; for JAK2 % activity remaining: 1 µM, assay duplicates
JAK2, sequence (O60674 whole entry): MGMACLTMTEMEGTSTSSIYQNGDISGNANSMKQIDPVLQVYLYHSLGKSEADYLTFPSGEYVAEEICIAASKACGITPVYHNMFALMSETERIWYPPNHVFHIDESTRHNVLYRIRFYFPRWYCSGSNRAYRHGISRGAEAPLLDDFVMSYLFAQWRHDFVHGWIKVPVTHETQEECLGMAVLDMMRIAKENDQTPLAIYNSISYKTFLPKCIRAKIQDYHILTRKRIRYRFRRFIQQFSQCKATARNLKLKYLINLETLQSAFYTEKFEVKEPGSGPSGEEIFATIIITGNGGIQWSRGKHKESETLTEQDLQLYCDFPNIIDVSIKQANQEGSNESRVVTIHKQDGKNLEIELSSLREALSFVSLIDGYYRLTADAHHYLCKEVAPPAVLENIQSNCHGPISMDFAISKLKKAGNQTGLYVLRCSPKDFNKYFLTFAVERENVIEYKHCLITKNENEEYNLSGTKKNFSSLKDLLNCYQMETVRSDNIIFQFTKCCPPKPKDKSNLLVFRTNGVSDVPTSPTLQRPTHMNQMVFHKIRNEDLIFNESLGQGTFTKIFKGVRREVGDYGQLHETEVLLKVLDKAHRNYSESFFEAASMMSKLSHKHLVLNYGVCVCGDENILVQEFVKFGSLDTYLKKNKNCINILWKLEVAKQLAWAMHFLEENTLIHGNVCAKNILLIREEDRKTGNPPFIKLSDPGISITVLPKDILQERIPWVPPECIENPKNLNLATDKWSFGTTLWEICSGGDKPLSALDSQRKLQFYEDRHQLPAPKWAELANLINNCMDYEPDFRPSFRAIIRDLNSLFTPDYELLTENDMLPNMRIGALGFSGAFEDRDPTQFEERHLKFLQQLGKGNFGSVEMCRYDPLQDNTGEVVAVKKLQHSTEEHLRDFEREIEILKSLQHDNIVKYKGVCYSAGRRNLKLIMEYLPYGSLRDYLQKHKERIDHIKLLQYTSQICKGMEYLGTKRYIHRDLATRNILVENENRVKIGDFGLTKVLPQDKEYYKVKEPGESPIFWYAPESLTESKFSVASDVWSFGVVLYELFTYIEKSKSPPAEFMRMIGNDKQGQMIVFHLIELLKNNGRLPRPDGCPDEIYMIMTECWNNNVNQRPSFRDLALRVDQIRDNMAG
Protocol: as §2, §3, §4

BTK = BTK (Homo sapiens, UniProt Q06187); assay: Kinase selectivity profiling; type: biochemical; conditions: 1 µM, assay duplicates
Protocol: as §2, §3, §4

BRSK2 = BRSK2 (Homo sapiens, UniProt Q8IWQ3); assay: Kinase selectivity profiling; type: biochemical; conditions: 1 µM, assay duplicates
Protocol: as §2, §3, §4

DYRK3 = DYRK3 (Homo sapiens, UniProt O43781); assay: Kinase selectivity profiling; type: biochemical; conditions: 1 µM, assay duplicates
Protocol: as §2, §3, §4

MLK1 = MLK1 (Homo sapiens, UniProt P80192); assay: Kinase selectivity profiling; type: biochemical; conditions: for MLK1 inhibition: 1 μM; for MLK1 % activity remaining: 1 µM, assay duplicates
MLK1, sequence (P80192 whole entry): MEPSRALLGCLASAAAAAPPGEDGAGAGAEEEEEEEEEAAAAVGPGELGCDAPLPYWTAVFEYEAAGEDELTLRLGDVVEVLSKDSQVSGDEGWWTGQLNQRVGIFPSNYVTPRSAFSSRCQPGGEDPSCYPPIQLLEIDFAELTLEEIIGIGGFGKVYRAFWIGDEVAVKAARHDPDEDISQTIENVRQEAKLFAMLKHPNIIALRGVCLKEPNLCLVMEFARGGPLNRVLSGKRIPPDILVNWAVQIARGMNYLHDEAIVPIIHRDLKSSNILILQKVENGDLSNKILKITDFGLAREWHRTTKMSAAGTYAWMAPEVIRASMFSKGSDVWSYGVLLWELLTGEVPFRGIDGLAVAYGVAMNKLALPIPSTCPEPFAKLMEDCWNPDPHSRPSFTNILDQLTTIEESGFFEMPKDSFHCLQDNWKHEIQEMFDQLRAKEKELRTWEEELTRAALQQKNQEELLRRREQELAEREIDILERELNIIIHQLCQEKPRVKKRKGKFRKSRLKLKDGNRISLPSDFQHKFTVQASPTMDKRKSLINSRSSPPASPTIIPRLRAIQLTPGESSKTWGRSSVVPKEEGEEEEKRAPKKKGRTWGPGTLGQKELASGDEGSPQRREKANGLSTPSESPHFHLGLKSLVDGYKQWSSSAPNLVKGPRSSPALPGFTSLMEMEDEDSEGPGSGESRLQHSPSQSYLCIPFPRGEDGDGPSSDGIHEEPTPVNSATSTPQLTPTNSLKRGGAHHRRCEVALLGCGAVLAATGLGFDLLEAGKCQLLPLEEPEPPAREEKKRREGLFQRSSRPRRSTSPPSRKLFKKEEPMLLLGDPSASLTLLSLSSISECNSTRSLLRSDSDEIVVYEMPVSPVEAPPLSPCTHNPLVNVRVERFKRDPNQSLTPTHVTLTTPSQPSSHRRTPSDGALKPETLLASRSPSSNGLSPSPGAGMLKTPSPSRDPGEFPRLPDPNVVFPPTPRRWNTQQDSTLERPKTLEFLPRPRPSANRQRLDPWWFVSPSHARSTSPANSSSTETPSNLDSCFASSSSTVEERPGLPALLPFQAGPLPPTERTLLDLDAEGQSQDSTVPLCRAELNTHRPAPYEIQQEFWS
Protocol: as §2, §3, §4

CSK = CSK (Homo sapiens, UniProt P41240); assay: Kinase selectivity profiling; type: biochemical; conditions: 1 µM, assay duplicates
Protocol: as §2, §3, §4

DYRK1A = DYRK1A (Homo sapiens, UniProt Q13627); assay: Kinase selectivity profiling; type: biochemical; conditions: 1 µM, assay duplicates
Protocol: as §2, §3, §4

PAK5 = PAK5 (Homo sapiens, UniProt Q9P286); assay: Kinase selectivity profiling; type: biochemical; conditions: 1 µM, assay duplicates
Protocol: as §2, §3, §4

MARK1 = MARK1 (Homo sapiens, UniProt Q9P0L2); assay: Kinase selectivity profiling; type: biochemical; conditions: 1 µM, assay duplicates
Protocol: as §2, §3, §4

MNK2 = MNK2 (Homo sapiens, UniProt Q9HBH9); assay: Kinase selectivity profiling; type: biochemical; conditions: 1 µM, assay duplicates
Protocol: as §2, §3, §4

EPH-A2 = EPH-A2 (Homo sapiens, UniProt P29317); assay: Kinase selectivity profiling; type: biochemical; conditions: 1 µM, assay duplicates
Protocol: as §2, §3, §4

p38g MAPK = p38g MAPK (Homo sapiens, UniProt P53778); assay: Kinase selectivity profiling; type: biochemical; conditions: 1 µM, assay duplicates
Protocol: as §2, §3, §4

CK2 = CK2 (Homo sapiens, UniProt P68400); assay: Kinase selectivity profiling; type: biochemical; conditions: 1 µM, assay duplicates
CK2, sequence (P68400 whole entry): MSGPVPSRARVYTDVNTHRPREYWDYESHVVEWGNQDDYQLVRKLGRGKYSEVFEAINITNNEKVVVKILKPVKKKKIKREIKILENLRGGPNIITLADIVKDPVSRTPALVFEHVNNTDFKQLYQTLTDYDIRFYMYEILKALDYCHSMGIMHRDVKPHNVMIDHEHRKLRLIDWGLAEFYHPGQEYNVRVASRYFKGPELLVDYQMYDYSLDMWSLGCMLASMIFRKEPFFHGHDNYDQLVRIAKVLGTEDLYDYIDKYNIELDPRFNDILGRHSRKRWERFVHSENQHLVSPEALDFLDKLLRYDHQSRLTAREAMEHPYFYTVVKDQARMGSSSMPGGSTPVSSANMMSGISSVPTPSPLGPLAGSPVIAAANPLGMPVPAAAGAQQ
Protocol: as §2, §3, §4

MLK3 = MLK3 (Homo sapiens, UniProt Q16584); assay: Kinase selectivity profiling; type: biochemical; conditions: 1 µM, assay duplicates
Protocol: as §2, §3, §4

CHK1 = CHK1 (Homo sapiens, UniProt O14757); assay: Kinase selectivity profiling; type: biochemical; conditions: 1 µM, assay duplicates
Protocol: as §2, §3, §4

PDK1 = PDK1 (Homo sapiens, UniProt O15530); assay: Kinase selectivity profiling; type: biochemical; conditions: 1 µM, assay duplicates
PDK1, sequence (O15530 whole entry): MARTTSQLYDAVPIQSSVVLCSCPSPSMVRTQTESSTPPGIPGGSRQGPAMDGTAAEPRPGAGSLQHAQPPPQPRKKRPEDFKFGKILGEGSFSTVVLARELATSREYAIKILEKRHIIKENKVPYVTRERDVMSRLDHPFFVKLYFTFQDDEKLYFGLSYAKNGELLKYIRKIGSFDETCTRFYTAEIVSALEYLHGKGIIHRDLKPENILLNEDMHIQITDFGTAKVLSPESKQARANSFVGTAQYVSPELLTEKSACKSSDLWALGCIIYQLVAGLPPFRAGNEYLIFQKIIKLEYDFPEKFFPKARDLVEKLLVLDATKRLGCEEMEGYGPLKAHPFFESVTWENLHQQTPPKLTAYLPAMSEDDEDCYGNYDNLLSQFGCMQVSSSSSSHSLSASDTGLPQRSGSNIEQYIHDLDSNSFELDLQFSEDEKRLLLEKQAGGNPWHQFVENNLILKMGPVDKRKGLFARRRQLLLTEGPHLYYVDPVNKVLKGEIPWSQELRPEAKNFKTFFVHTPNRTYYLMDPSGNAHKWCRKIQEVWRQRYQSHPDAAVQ
Protocol: as §2, §3, §4

HIPK2 = HIPK2 (Homo sapiens, UniProt Q9H2X6); assay: Kinase selectivity profiling; type: biochemical; conditions: 1 µM, assay duplicates
Protocol: as §2, §3, §4

SmMLCK = SmMLCK (Homo sapiens, UniProt Q15746); assay: Kinase selectivity profiling; type: biochemical; conditions: 1 µM, assay duplicates
Protocol: as §2, §3, §4

HIPK1 = HIPK1 (Homo sapiens, UniProt Q86Z02); assay: Kinase selectivity profiling; type: biochemical; conditions: 1 µM, assay duplicates
Protocol: as §2, §3, §4

MSK1 = MSK1 (Homo sapiens, UniProt O75582); assay: Kinase selectivity profiling; type: biochemical; conditions: 1 µM, assay duplicates
Protocol: as §2, §3, §4

PIM3 = PIM3 (Homo sapiens, UniProt Q86V86); assay: Kinase selectivity profiling; type: biochemical; conditions: 1 µM, assay duplicates
Protocol: as §2, §3, §4

IRAK4 = IRAK4 (Homo sapiens, UniProt Q9NWZ3); assay: Kinase selectivity profiling; type: biochemical; conditions: 1 µM, assay duplicates
Protocol: as §2, §3, §4

SRPK1 = SRPK1 (Homo sapiens, UniProt Q96SB4); assay: Kinase selectivity profiling; type: biochemical; conditions: 1 µM, assay duplicates
Protocol: as §2, §3, §4

AMPK = assay: Kinase selectivity profiling; type: biochemical; conditions: 1 µM, assay duplicates
Protocol: as §2, §3, §4

[1] = system: HCT116 human colon carcinoma cells; assay: HCT116 cell growth inhibition; type: cell-based; conditions: 72 h incubation
Text: as §1

[2] = Human liver microsomal stability; type: in vitro ADME; conditions: percentage of compound metabolised after a 30 min incubation, human liver microsomes
Protocol: [18] MLM and HLM microsomal stabilities were determined as described in Ref. [12].

| Structure (SMILES) | IC50 (Aurora A) | NUAK1 % activity remaining (NUAK1) | PAK4 % activity remaining (PAK4) | PKD1 % activity remaining (PKD1) | EF2K % activity remaining (EF2K) | JAK2 inhibition (JAK2) | JAK2 % activity remaining (JAK2) | BTK % activity remaining (BTK) | BRSK2 % activity remaining (BRSK2) | DYRK3 % activity remaining (DYRK3) | MLK1 inhibition (MLK1) | MLK1 % activity remaining (MLK1) | CSK % activity remaining (CSK) | DYRK1A % activity remaining (DYRK1A) | PAK5 % activity remaining (PAK5) | MARK1 % activity remaining (MARK1) | MNK2 % activity remaining (MNK2) | EPH-A2 % activity remaining (EPH-A2) | p38g MAPK % activity remaining (p38g MAPK) | CK2 % activity remaining (CK2) | other results |
| --- | --- | --- | --- | --- | --- | --- | --- | --- | --- | --- | --- | --- | --- | --- | --- | --- | --- | --- | --- | --- | --- |
| Cc1nn(C)cc1-c1nc2c(-c3cnn(Cc4ccccc4)c3)c(Cl)cnc2[nH]1 [Compound 7a] | 212 ± 107 nM | 1% | 23% | 76% | 94% | greater than 80% | 2% | 46% | 33% | 25% | greater than 80% | 3% | 59% | 3% | 36% | 31% | 44% | 70% | 17% | 62% | MLK3 % activity remaining (MLK3): 2%; CHK1 % activity remaining (CHK1): 68%; PDK1 % activity remaining (PDK1): 52%; HIPK2 % activity remaining (HIPK2): 6%; SmMLCK % activity remaining (SmMLCK): 51%; HIPK1 % activity remaining (HIPK1): 3%; MSK1 % activity remaining (MSK1): 62%; PIM3 % activity remaining (PIM3): 45%; IRAK4 % activity remaining (IRAK4): 28%; SRPK1 % activity remaining (SRPK1): 73%; AMPK % activity remaining (AMPK): 50%; GI50 [1]: 150 nM; HLM % met/30 min [2]: 43% |
| Cc1cc(Cn2cc(-c3c(Cl)cnc4[nH]c(-c5cn(C)nc5C)nc34)cn2)no1 [Compound 14d] | 35 nM | 8% | 25% | 97% | 102% | ≥ 80% | 2% | 33% | 72% | 30% | ≥ 80% | 8% | 83% | 9% | 41% | 38% | 32% | 57% | 36% | 57% | MLK3 % activity remaining (MLK3): 6%; CHK1 % activity remaining (CHK1): 52%; PDK1 % activity remaining (PDK1): 49%; HIPK2 % activity remaining (HIPK2): 11%; SmMLCK % activity remaining (SmMLCK): 43%; HIPK1 % activity remaining (HIPK1): 22%; MSK1 % activity remaining (MSK1): 61%; PIM3 % activity remaining (PIM3): 55%; IRAK4 % activity remaining (IRAK4): 33%; SRPK1 % activity remaining (SRPK1): 31%; AMPK % activity remaining (AMPK): 34%; GI50 [1]: 340 nM; HLM % met/30 min [2]: 37% |

Reference: paper PMC4577729, “7-(Pyrazol-4-yl)-3H-imidazo[4,5-b]pyridine-based derivatives for kinase inhibition: Co-crystallisation studies with Aurora-A reveal distinct differences in the orientation of the pyrazole N1-substituent” (Bioorganic & Medicinal Chemistry Letters, 2015)
